Legend:
[1] = tested on: influenza A virus (A/PR/8/34); test: MDCK cytopathic effect (CPE) cell protection assay, ATP detection; type: cell-based; details: Influenza A virus, PR/8, MDCK, 72 h, Table 1; MDCK cells, A/PR/8/34, 72 hours, 50% cell protection, mean all; class symbol; read-out: MDCK IC50
[2] = tested on: influenza A virus (A/PR/8/34); test: microbe, parasite or virus in culture; type: cell-based; details: Influenza A virus, PR/8, Table 1, mean all, class symbol; for EC99: read-out: bDNA EC99; for EC50: viral RNA 50% of control wells, read-out: bDNA EC50

| Structure (SMILES) | IC50 [1] [nM] | EC99 [2] [µM] | EC50 [2] [nM] |
| --- | --- | --- | --- |
| COCCNS(=O)(=O)C[C@@H](Nc1nc(-c2c[nH]c3ncc(F)cc23)ncc1F)C(C)(C)C [Compound 35, (S)-2-(5-Fluoro-2-(5-fluoro-1H-pyrrolo[2,3-b]pyridin-3-yl)pyrimidin-4-ylamino)-N-(2-methoxyethyl)-3,3-dimethylbutane-1-sulfonamide] | < 300 | 0.3 to 3.3 | < 300 |
| CNS(=O)(=O)C[C@H](Nc1nc(-c2c[nH]c3ncc(F)cc23)ncc1F)C(C)(C)C [Compound 38, (R)-2-((5-fluoro-2-(5-fluoro-1H-pyrrolo[2,3-b]pyridin-3-yl)pyrimidin-4-yl)amino)-N,3,3-trimethylbutane-1-sulfonamide] | > 3300 | > 3.3 | > 3300 |
| CC(C)NS(=O)(=O)C[C@@H](Nc1nc(-c2c[nH]c3ncc(F)cc23)ncc1F)C(C)(C)C [Compound 39] | < 300 | 0.3 to 3.3 | < 300 |
| CC(C)(C)NS(=O)(=O)C[C@@H](Nc1nc(-c2c[nH]c3ncc(F)cc23)ncc1F)C(C)(C)C [Compound 40] | < 300 | 0.3 to 3.3 | < 300 |
| CC1([C@@H](CC(=O)O)Nc2nc(-c3c[nH]c4ncc(F)cc34)c(C#N)cc2F)CCCC1 [Compound 42, (R)-3-(5-cyano-3-fluoro-6-(5-fluoro-1H-pyrrolo[2,3-b]pyridin-3-yl)pyridin-2-ylamino)-3-(1-methylcyclopentyl)propanoic acid] | < 300 | < 0.3 | < 300 |
| CC(C)(C)[C@@H](CC(=O)O)Nc1nc(-c2c[nH]c3ncc(C(F)(F)F)cc23)ncc1F [Compound 43, (R)-3-((5-fluoro-2-(5-(trifluoromethyl)-1H-pyrrolo[2,3-b]pyridin-3-yl)pyrimidin-4-yl)amino)-4,4-dimethylpentanoic acid] | < 300 | < 0.3 | < 300 |
| CC(C)(C)[C@@H](CS(C)(=O)=O)Nc1nc(-c2c[nH]c3ncc(F)cc23)ncc1F [Compound 46, (S)—N-(3,3-dimethyl-1-(methylsulfonyl)butan-2-yl)-5-fluoro-2-(5-fluoro-1H-pyrrolo[2,3-b]pyridin-3-yl)pyrimidin-4-amine] | < 300 | > 3.3 | 300 to 3300 |
| CC(C)(C)[C@@H](CC(=O)O)Nc1ccnc(-c2c[nH]c3ncc(F)cc23)n1 [Compound 47, (R)-3-((2-(5-fluoro-1H-pyrrolo[2,3-b]pyridin-3-yl)pyrimidin-4-yl)amino)-4,4-dimethylpentanoic acid] | < 300 | 0.3 to 3.3 | < 300 |
| CC(C)(C)[C@@H](CC(=O)O)Nc1ccnc(-c2n[nH]c3ncc(F)cc23)n1 [Compound 48, (R)-3-((2-(5-fluoro-1H-pyrazolo[3,4-b]pyridin-3-yl)pyrimidin-4-yl)amino)-4,4-dimethylpentanoic acid] | < 300 | 0.3 to 3.3 | 300 to 3300 |
| CC(C)(C)[C@@H](CO)Nc1nc(-c2c[nH]c3ncc(Cl)cc23)ncc1F [Compound 49, (S)-2-((2-(5-chloro-1H-pyrrolo[2,3-b]pyridin-3-yl)-5-fluoropyrimidin-4-yl)amino)-3,3-dimethylbutan-1-ol] | < 300 | 0.3 to 3.3 | < 300 |
| CC(C)(C)C(Nc1nc(-c2c[nH]c3ncc(F)cc23)ncc1F)C1CC1C(=O)O (stereo not drawn) [Compound 50, 2-(1-((5-fluoro-2-(5-fluoro-1H-pyrrolo[2,3-b]pyridin-3-yl)pyrimidin-4-yl)amino)-2,2-dimethylpropyl)cyclopropanecarboxylic acid] | < 300 | 0.3 to 3.3 | < 300 |
| CC(C)(C)N(CC(=O)O)Nc1nc(-c2c[nH]c3ncc(F)cc23)ncc1F [Compound 53, 2-(1-(tert-butyl)-2-(5-fluoro-2-(5-fluoro-1H-pyrrolo[2,3-b]pyridin-3-yl)pyrimidin-4-yl)hydrazinyl)acetic acid] | < 300 | 0.3 to 3.3 | < 300 |

From patent publication US10875855B2 (priority 2011, dated 2020)
